According to article PMC7217877, “N-AS-triggered SPMs are direct regulators of microglia in a model of Alzheimer’s disease” (Nature Communications, 2020):
“And” between values parts separate entries of the source, which are not always exact repeats. Equal values may be shown once.

Legend:
APP/PS1 mice = experiment: immunofluorescence of 6E10, Aβ40 and Aβ42 (Fig 6b-d); type: in vivo, mouse; details: for 6E10 immunofluorescence quantification (Figure 6b) / Aβ40 immunofluorescence quantification (Figure 6c) / Aβ42 immunofluorescence quantification (Figure 6d): APP/PS1 + N-AS, individual animals
Description: Thioflavin S (Sigma-Aldrich) staining was carried out according to previously described procedures. We used 6E10 (mouse, 1:100, Signet, SIG39300), anti-20G10 (mouse, 1:1000, provided by D. R. Howlett, GlaxoSmithKline, Harlow, Essex, UK) for Aβ42, anti-G30 (rabbit, 1:1000, provided by D. R. Howlett) for Aβ40, SMA (mouse, 1:400, Sigma-Aldrich, A2547), AT8 (mouse, 1:500, Thermo Fisher Scientific, MN1020), Caspase-3 (mouse, 1:200, Novus Biologicals, NB100-56708), ac-S565 (rabbit, 1:100), COX2 (mouse, 1:250, Thermo Fisher Scientific, 35-8200), Iba1 (rabbit, 1:500, Wako, 019-19941 and goat, Abcam, ab5076), NeuN (mouse, 1:500, Millipore, MAB177), GFAP (rabbit, 1:500, Dako, N1506 and chicken, 1:500, Abcam, ab4674), and Lamp1 (mouse, 1:200, Abcam, ab24170). The sections were analyzed with a laser-scanning confocal microscope (FV3000; Olympus) or with a BX51 microscope (Olympus). MetaMorph software (Molecular Devices) was used to quantification. Three-dimensional reconstruction of microglia was recorded and analyzed using IMARIS software (Bitplane)[11]. For the analysis of age-dependent microglial COX2^+ CX3CR1^+ cells in WT and APP/PS1 mice, COX2 (rabbit, 1:100, Abcam, ab15191) and CX3CR1 (mouse, 1:100, BioLegend, 149008) antibody were used and the images were acquired on Alexa 488 and APC Channel with performed using Operetta CLS and Analysis Software 4.5 (Perkin-Elmer).
Transgenic mouse lines over-expressing the hAPP695swe (APP) and presenilin-1M146V (PS1) mutations were originated from GlaxoSmithKline (Harlow, UK)[32] and maintained as described previously. We purchased 5×FAD mice from Jackson Labs (Stock number. 34840-JAX). Because APP/PS1 and 5xFAD mice show sex differences in disease progression, we used only male mice. To examine possible therapeutic effect of N-AS and aspirin in APP/PS1 mice, the N-AS (30 mg kg^−1, Sigma-Aldrich, 01912) was injected daily s.c. for 8 weeks to 7-months-old APP/PS1 mice until the age of 9 months, and aspirin (2 mg kg^−1, Sigma-Aldrich, A5376)[33] was administrated orally to 7-months-old APP/PS1 mice for 8 weeks. Also, to confirm possible therapeutic efficacy of N-AS in 5×FAD, the N-AS (30 mg kg^−1, Sigma-Aldrich, 01912) was injected daily s.c. for 4 weeks to 3-months-old 5×FAD mice until the age of 4 months. Block randomization method was used to allocate the animals to experimental groups. To eliminate the bias, we were blinded in experimental progress such as data collection and data analysis. Mice were housed at temperature of 22 °C and a 12 h day/12 h night cycle with free access to tap water and food pellets. All protocols were approved by the Kyungpook National University Institutional Animal Care and Use Committee.

microglia = experiment: acetyl-CoA level in primary cells (assay kit); type: cell-based, C57BL/6 mice; details: Ab 10mM, replicates
Description: To confirm the generation and roles of N-AS in neurons, cells from E18 C57BL/6 mice were prepared as previously described. Cortices were dissected and then dissociated followed by incubation in papain (Worthington) at 37 °C for 15 min. Neurons were plated on poly-L-lysine-coated coverslips with neuronal culture medium, serum-free Neurobasal medium (Gibco) containing 2% B27 supplements (Gibco), 1 mM Glutamax supplement (Gibco), and 100 U ml^−1 streptomycin/ 100 U ml^−1 penicillin (Gibco) at 37 °C in a humidified atmosphere of 5% CO2. Aβ 1–42 (10 μM, 24 h, Invitrogen, 03112) was exposed to neurons and the cells were analyzed for the generation and roles of N-AS. Primary astrocyte cultures were prepared from C57BL/6 mice as described previously. In brief, after removal of the meninges, postnatal day 7 (P7) mouse brain tissues were minced and incubated in a rocking water bath at 37 °C for 30 min in the presence of 0.25% trypsin-EDTA (Sigma-Aldrich). Enzyme-digested dissociated cells were triturated with astrocyte-specific medium (DMEM/F12 containing 10% FBS and 1% penicillin-streptomycin) and centrifuged at 155×g for 8 min. […] The human microglia treated with Aβ 1–42 and/or zileuton was incubated with N-AS (2.5 μM, 2 h, Sigma-Aldrich, 01912), and were analyzed for the generation and roles of N-AS. […]

**Q.** Which results are given for `CCCCCCCCCCCCC/C=C/[C@@H](O)[C@H](CO)NC(C)=O` [N-AS, N-((2S,3R,E)-1,3-Dihydroxyoctadec-4-en-2-yl)acetamide]?
**A.** 6E10 immunofluorescence quantification (Figure 6b) (APP/PS1 mice; Cortex): 0.0608 and 0.09453 and 0.05939 and 0.02037 and 0.005591 and 0.04313 and 0.04886 and 0.06655; Aβ40 immunofluorescence quantification (Figure 6c) (APP/PS1 mice; Cortex): 0.06419 and 0.04296 and 0.0589 and 0.2298 and 0.117 and 0.122 and 0.04359 and 0.05854; Aβ42 immunofluorescence quantification (Figure 6d) (APP/PS1 mice; Cortex): 0.1554 and 0.215 and 0.1788 and 0.1001 and 0.1191 and 0.09457 and 0.1824 and 0.177; 6E10 immunofluorescence quantification (Figure 6b) (APP/PS1 mice; Hippocampus): 0.04847 and 0.07321 and 0.02799 and 0.04609 and 0.00742 and 0.009448 and 0.05438 and 0.09253; Aβ40 immunofluorescence quantification (Figure 6c) (APP/PS1 mice; Hippocampus): 0.07041 and 0.04924 and 0.02685 and 0.04786 and 0.1308 and 0.07762 and 0.09677 and 0.1893 and 0.1045; Aβ42 immunofluorescence quantification (Figure 6d) (APP/PS1 mice; Hippocampus): 0.2679 and 0.3316 and 0.148 and 0.1454 and 0.2815 and 0.3706 and 0.09586 and 0.279 and 0.395; Aβ levels by immunofluorescence of 6E10, Aβ40, Aβ42 (APP/PS1 mice; N-AS vs vehicle APP/PS1): significantly lower Aβ levels

**Q.** For “Ab: Aβ 1–42 (Invitrogen, 03112) used to induce an AD environment in cells”, which “acetyl-CoA (Fig 3e)” value (microglia) is on record?
**A.** The value was 0.5557 and 0.2327 and 0.5301 and 0.5514 and 0.536 and 0.6185.
